Laboratory results published in patent US20260070945A1, “MACROCYCLIC IMMUNOMODULATORS” (Bristol-Myers Squibb Company, priority 2022, published 2026).
*1 amine or outer side, *2 acyl side, *3 side chain or, on linkers, in order; H or OH if unused. Where a SMILES comes first, the peptide text is derived from it. Bridges are numbered along the chain shown (N, C = ends). [ ]: non-standard residue; d: D form. The star is where a group is joined. X8 = O=C(O)COc1ccc(C[C@H](N[*:1])C(=O)[*:2])cn1; Phe(4-COOH) = N[C@@H](Cc1ccc(C(=O)O)cc1)C(=O)O; Bip = N[C@@H](Cc1ccc(-c2ccccc2)cc1)C(=O)O; 4Pal = N[C@@H](Cc1ccncc1)C(=O)O; Cha = N[C@@H](CC1CCCCC1)C(=O)O; Cit = NC(=O)NCCC[C@H](N)C(=O)O; Carboxymethyl = O=C(O)C*; NMeA = CN[C@@H](C)C(=O)O; Orn = NCCC[C@H](N)C(=O)O; Aun = NCCCCCCCCCCC(=O)O; Dab = NCC[C@H](N)C(=O)O; Dap = NC[C@H](N)C(=O)O

Each compound was assayed against T1, PD-1/PD-L1 interaction (PE-labeled human PD-L1-Ig binding to Jurkat cell line over-expressing human PD-1) (Homo sapiens, UniProt Q15116) (assay: Jurkat-PD-1 Cell Binding High-Content Screening Assay (CBA)). Conditions: Jurkat-hPD-1 cells, PE-labeled PD-L1-Ig 20 nM final; read-out: Jurkat HPD1 PDL1 IC50.
T1 construct: expressed in transfected cells; host or cells: Jurkat
T1 sequence (Q15116 25-288): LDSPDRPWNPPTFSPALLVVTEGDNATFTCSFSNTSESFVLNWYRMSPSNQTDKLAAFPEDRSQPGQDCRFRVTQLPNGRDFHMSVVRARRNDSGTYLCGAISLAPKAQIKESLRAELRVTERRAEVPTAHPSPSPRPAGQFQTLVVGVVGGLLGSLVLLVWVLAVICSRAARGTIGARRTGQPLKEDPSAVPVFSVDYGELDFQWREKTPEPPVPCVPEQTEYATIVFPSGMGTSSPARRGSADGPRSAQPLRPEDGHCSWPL
Procedure, shortened: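 Jurkat cells overexpressing human PD-1 (8×10^3/well, DMEM + 10% FCS) preincubated with compound 2 h at 37 °C, then PE-labelled human PD-L1-Ig (20 nM final) for 1 h. Cells fixed in paraformaldehyde with Hoechst 33342; bound PD-L1 quantified by high-content imaging.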

First: CC(C)C[C@@H]1NC(=O)[C@H](Cc2c[nH]c3ccccc23)NC(=O)[C@H](CC(=O)O)NC(=O)[C@H](Cc2ccc(C(=O)O)cc2)NC(=O)[C@H](Cc2ccc(OCC(=O)O)cc2)NC(=O)CSC[C@@H](C(=O)N[C@@H](CCN)C(=O)NCCCCCCCCCCC(=O)O)NC(=O)[C@H](CCC(N)=O)NC(=O)[C@H](C(C)C)NC(=O)[C@H](CC2CCCCC2)NC(=O)[C@H](CCN)NC(=O)[C@@H](CC(C)C)NC(=O)[C@H](C)N(C)C(=O)[C@H](C(C)C)NC(=O)[C@H](Cc2ccc(-c3ccccc3)cc2)NC1=O [Example 1337] ({CH2CO}-Y(Carboxymethyl)[Phe(4-COOH)]DWL[Bip]V[NMeA][dL][Dab][Cha]VQC[Dab][Aun]-OH; thioether N-14)
Second: CC(C)C[C@@H]1NC(=O)[C@H](Cc2c[nH]c3ccccc23)NC(=O)[C@H](CC(=O)O)NC(=O)[C@H](Cc2ccc(C(=O)O)cc2)NC(=O)[C@H](Cc2ccc(OCC(=O)O)cc2)NC(=O)CSC[C@@H](C(=O)N[C@@H](CCN)C(=O)NCCCCCCCCCCC(=O)O)NC(=O)[C@@H](CCC(N)=O)NC(=O)[C@H](C(C)C)NC(=O)[C@H](CC2CCCCC2)NC(=O)[C@H](CCN)NC(=O)[C@@H](CC(C)C)NC(=O)[C@H](C)N(C)C(=O)[C@H](C(C)C)NC(=O)[C@H](Cc2ccc(-c3ccccc3)cc2)NC1=O [Example 1339] ({CH2CO}-Y(Carboxymethyl)[Phe(4-COOH)]DWL[Bip]V[NMeA][dL][Dab][Cha]V[dQ]C[Dab][Aun]-OH; thioether N-14)
The IC50 of the first is 2.8-fold lower: 9.9 nM for the first, 28 nM for the second.

First: CC(C)C[C@@H]1NC(=O)[C@H](Cc2c[nH]c3ccccc23)NC(=O)[C@H](CC(=O)O)NC(=O)[C@H](Cc2ccncc2)NC(=O)[C@H](Cc2ccc(OCC(=O)O)cc2)NC(=O)CSC[C@@H](C(=O)N[C@@H](CCN)C(=O)NCCCCCCCCCCC(=O)O)NC(=O)[C@H](CCC(N)=O)NC(=O)[C@H](C(C)C)NC(=O)[C@H](CC2CCCCC2)NC(=O)[C@H](CCN)NC(=O)[C@@H](CC(C)C)NC(=O)[C@H](C)N(C)C(=O)[C@H](C(C)C)NC(=O)[C@H](Cc2ccc(-c3ccccc3)cc2)NC1=O [Example 1341] ({CH2CO}-Y(Carboxymethyl)[4Pal]DWL[Bip]V[NMeA][dL][Dab][Cha]VQC[Dab][Aun]-OH; thioether N-14)
Second: CC(C)C[C@@H]1NC(=O)[C@H](Cc2c[nH]c3ccccc23)NC(=O)[C@H](CC(=O)O)NC(=O)[C@H](Cc2ccncc2)NC(=O)[C@H](Cc2ccc(OCC(=O)O)cc2)NC(=O)CSC[C@@H](C(=O)N[C@@H](CCCN)C(=O)NCCCCCCCCCCC(=O)O)NC(=O)[C@H](CCC(N)=O)NC(=O)[C@H](C(C)C)NC(=O)[C@H](CC2CCCCC2)NC(=O)[C@H](CCN)NC(=O)[C@@H](CC(C)C)NC(=O)[C@H](C)N(C)C(=O)[C@H](C(C)C)NC(=O)[C@H](Cc2ccc(-c3ccccc3)cc2)NC1=O [Example 1342] ({CH2CO}-Y(Carboxymethyl)[4Pal]DWL[Bip]V[NMeA][dL][Dab][Cha]VQC[Orn][Aun]-OH; thioether N-14)
The IC50 of the first is 2-fold lower: 9.1 nM for the first, 18 nM for the second. The first is the more potent here.

Going from `CC(C)C[C@@H]1NC(=O)[C@H](Cc2c[nH]c3ccccc23)NC(=O)[C@H](CC(=O)O)NC(=O)[C@H](Cc2ccncc2)NC(=O)[C@H](Cc2ccc(OCC(=O)O)nc2)NC(=O)CSC[C@@H](C(=O)N[C@@H](CCN)C(=O)NCCCCCCCCCCC(=O)O)NC(=O)[C@H](CCC(N)=O)NC(=O)[C@H](C(C)C)NC(=O)[C@H](CC2CCCCC2)NC(=O)[C@H](CCN)NC(=O)[C@@H](CC(C)C)NC(=O)[C@H](C)N(C)C(=O)[C@H](C(C)C)NC(=O)[C@H](Cc2ccc(-c3ccccc3)cc2)NC1=O` [Example 1343] ({CH2CO}-[X8][4Pal]DWL[Bip]V[NMeA][dL][Dab][Cha]VQC[Dab][Aun]-OH; thioether N-14) to `CC(C)C[C@@H]1NC(=O)[C@H](Cc2c[nH]c3ccccc23)NC(=O)[C@H](CC(=O)O)NC(=O)[C@H](Cc2ccncc2)NC(=O)[C@H](Cc2ccc(OCC(=O)O)cc2)NC(=O)CSC[C@@H](C(=O)N[C@@H](CCCN)C(=O)NCCCCCCCCCCC(=O)O)NC(=O)[C@@H](CCC(N)=O)NC(=O)[C@H](C(C)C)NC(=O)[C@H](CC2CCCCC2)NC(=O)[C@H](CCN)NC(=O)[C@@H](CC(C)C)NC(=O)[C@H](C)N(C)C(=O)[C@H](C(C)C)NC(=O)[C@H](Cc2ccc(-c3ccccc3)cc2)NC1=O` [Example 1344] ({CH2CO}-Y(Carboxymethyl)[4Pal]DWL[Bip]V[NMeA][dL][Dab][Cha]V[dQ]C[Orn][Aun]-OH; thioether N-14), the IC50 rises from 39.2 nM to 69.5 nM (1.8-fold). The first is the more potent here.

Compared with `CC(C)C[C@@H]1NC(=O)[C@H](Cc2c[nH]c3ccccc23)NC(=O)[C@H](CC(=O)O)NC(=O)[C@H](Cc2ccc(OCC(=O)O)cc2)NC(=O)[C@H](Cc2ccccc2)NC(=O)CSC[C@@H](C(=O)N[C@@H](CCCN)C(=O)NCCCCCCCCCCC(=O)O)NC(=O)[C@H](CCC(N)=O)NC(=O)[C@H](C(C)C)NC(=O)[C@H](CC(C)C)NC(=O)[C@H](CC(N)=O)NC(=O)[C@@H](CC(C)C)NC(=O)[C@H](C)N(C)C(=O)[C@H](C(C)C)NC(=O)[C@H](Cc2ccc(-c3ccccc3)cc2)NC1=O` [Example 1345] ({CH2CO}-FY(Carboxymethyl)DWL[Bip]V[NMeA][dL]NLVQC[Orn][Aun]-OH; thioether N-14), `CC(C)C[C@@H]1NC(=O)[C@H](Cc2c[nH]c3ccccc23)NC(=O)[C@H](CC(=O)O)NC(=O)[C@H](Cc2ccc(OCC(=O)O)cc2)NC(=O)[C@H](Cc2ccccc2)NC(=O)CSC[C@@H](C(=O)N[C@@H](CCCN)C(=O)NCCCCCCCCCCC(=O)O)NC(=O)[C@@H](CCC(N)=O)NC(=O)[C@H](C(C)C)NC(=O)[C@H](CC(C)C)NC(=O)[C@H](CC(N)=O)NC(=O)[C@@H](CC(C)C)NC(=O)[C@H](C)N(C)C(=O)[C@H](C(C)C)NC(=O)[C@H](Cc2ccc(-c3ccccc3)cc2)NC1=O` [Example 1347] ({CH2CO}-FY(Carboxymethyl)DWL[Bip]V[NMeA][dL]NLV[dQ]C[Orn][Aun]-OH; thioether N-14) is 2.6-fold higher in IC50: 118 nM for the first, 301 nM for the second. The first is the more potent here.

`CC(C)C[C@@H]1NC(=O)[C@H](Cc2c[nH]c3ccccc23)NC(=O)[C@H](CC(=O)O)NC(=O)[C@H](Cc2ccc(OCC(=O)O)cc2)NC(=O)[C@H](Cc2ccccc2)NC(=O)CSC[C@@H](C(=O)N[C@@H](CCN)C(=O)NCCCCCCCCCCC(=O)O)NC(=O)[C@H](CCC(N)=O)NC(=O)[C@H](C(C)C)NC(=O)[C@H](CC(C)C)NC(=O)[C@H](CC(N)=O)NC(=O)[C@@H](CC(C)C)NC(=O)[C@H](C)N(C)C(=O)[C@H](C(C)C)NC(=O)[C@H](Cc2ccc(-c3ccccc3)cc2)NC1=O` [Example 1346] ({CH2CO}-FY(Carboxymethyl)DWL[Bip]V[NMeA][dL]NLVQC[Dab][Aun]-OH; thioether N-14) and `CC(C)C[C@@H]1NC(=O)[C@H](Cc2c[nH]c3ccccc23)NC(=O)[C@H](CC(=O)O)NC(=O)[C@H](Cc2ccc(OCC(=O)O)cc2)NC(=O)[C@H](Cc2ccccc2)NC(=O)CSC[C@@H](C(=O)N[C@@H](CCCCN)C(=O)NCCCCCCCCCCC(=O)O)NC(=O)[C@H](CN)NC(=O)[C@H](C(C)C)NC(=O)[C@H](CC(C)C)NC(=O)[C@H](CC(N)=O)NC(=O)[C@@H](CC(C)C)NC(=O)[C@H](C)N(C)C(=O)[C@H](C(C)C)NC(=O)[C@H](Cc2ccc(-c3ccccc3)cc2)NC1=O` [Example 1350] ({CH2CO}-FY(Carboxymethyl)DWL[Bip]V[NMeA][dL]NLV[Dap]CK[Aun]-OH; thioether N-14) are within 1.5-fold of each other in IC50: 113 nM for the first, 119 nM for the second.

Compared with `CC(C)C[C@@H]1NC(=O)[C@H](Cc2c[nH]c3ccccc23)NC(=O)[C@H](CC(=O)O)NC(=O)[C@H](Cc2ccc(C(=O)O)cc2)NC(=O)[C@H](Cc2ccc(OCC(=O)O)cc2)NC(=O)CSC[C@@H](C(=O)N[C@@H](CCCCN)C(=O)NCCCCCCCCCCC(=O)O)NC(=O)[C@H](CN)NC(=O)[C@H](C(C)C)NC(=O)[C@H](CC2CCCCC2)NC(=O)[C@H](CCN)NC(=O)[C@@H](CC(C)C)NC(=O)[C@H](C)N(C)C(=O)[C@H](C(C)C)NC(=O)[C@H](Cc2ccc(-c3ccccc3)cc2)NC1=O` [Example 1348] ({CH2CO}-Y(Carboxymethyl)[Phe(4-COOH)]DWL[Bip]V[NMeA][dL][Dab][Cha]V[Dap]CK[Aun]-OH; thioether N-14), `CC(C)C[C@@H]1NC(=O)[C@H](Cc2c[nH]c3ccccc23)NC(=O)[C@H](CC(=O)O)NC(=O)[C@H](Cc2ccncc2)NC(=O)[C@H](Cc2ccc(OCC(=O)O)cc2)NC(=O)CSC[C@@H](C(=O)N[C@@H](CCCCN)C(=O)NCCCCCCCCCCC(=O)O)NC(=O)[C@H](CN)NC(=O)[C@H](C(C)C)NC(=O)[C@H](CC2CCCCC2)NC(=O)[C@H](CCN)NC(=O)[C@@H](CC(C)C)NC(=O)[C@H](C)N(C)C(=O)[C@H](C(C)C)NC(=O)[C@H](Cc2ccc(-c3ccccc3)cc2)NC1=O` [Example 1349] ({CH2CO}-Y(Carboxymethyl)[4Pal]DWL[Bip]V[NMeA][dL][Dab][Cha]V[Dap]CK[Aun]-OH; thioether N-14) is 2.5-fold lower in IC50: 39.4 nM for the first, 15.8 nM for the second. The second is the more potent here.

Going from `CC(C)C[C@H]1NC(=O)[C@H](C)N(C)C(=O)[C@H](CCCNC(N)=O)NC(=O)[C@H](Cc2ccc(-c3ccccc3)cc2)NC(=O)[C@H](C(C)C)NC(=O)[C@H](Cc2c[nH]c3ccccc23)NC(=O)[C@H](CC(=O)O)NC(=O)[C@H](Cc2ccc(OCC(=O)O)cc2)NC(=O)[C@H](CCCNC(=N)N)NC(=O)CSC[C@@H](C(=O)N[C@@H](CCN)C(=O)NCCCCCCCCCCC(=O)O)NC(=O)[C@H]([C@@H](C)O)NC(=O)[C@H](C(C)C)NC(=O)[C@H](CC2CCCCC2)NC(=O)[C@H](CCN)NC1=O` [Example 1353] ({CH2CO}-RY(Carboxymethyl)DWV[Bip][Cit][NMeA][dL][Dab][Cha]VTC[Dab][Aun]-OH; thioether N-14) to `CC(C)C[C@H]1NC(=O)[C@H](C)N(C)C(=O)[C@H](CCCNC(N)=O)NC(=O)[C@H](Cc2ccc(-c3ccccc3)cc2)NC(=O)[C@H](Cc2ccc(O)cc2)NC(=O)[C@H](Cc2c[nH]c3ccccc23)NC(=O)[C@H](CC(=O)O)NC(=O)[C@H](Cc2ccc(OCC(=O)O)cc2)NC(=O)[C@H](CCCNC(=N)N)NC(=O)CSC[C@@H](C(=O)N[C@@H](CCN)C(=O)NCCCCCCCCCCC(=O)O)NC(=O)[C@H]([C@@H](C)O)NC(=O)[C@H](C(C)C)NC(=O)[C@H](CC2CCCCC2)NC(=O)[C@H](CCN)NC1=O` [Example 1354] ({CH2CO}-RY(Carboxymethyl)DWY[Bip][Cit][NMeA][dL][Dab][Cha]VTC[Dab][Aun]-OH; thioether N-14), the IC50 rises from 16.3 nM to 42.2 nM (2.6-fold). The first is the more potent here.
